Laboratory results taken from US20250161377A1, “COMPOSITION COMPRISING AT LEAST ONE BIFIDOBACTERIUM STRAIN FOR THE TREATMENT OF VITILIGO” (INSTITUT NATIONAL DE LA SANTE ET DE LA RECHERCHE MEDICALE, priority 2022, published 2025).

Tested on: Primary human keratinocytes (NHK)
Experiment: Mitochondrial ROS in keratinocytes, dihydrorhodamine labeling quantified by FACS
Assay type: cell-based
Conditions: NHK pretreated one hour, basal untreated = 100
Procedure: Primary human keratinocytes (NHK) were isolated from the foreskin of healthy children and cultured in a serum-free medium supplemented with bovine pituitary extract (250 μg/mL) and EGF (0.25 ng/mL). The NHKs are then seeded onto 6-well plates and incubated in a controlled atmosphere. When the keratinocytes reach 70 to 80% confluence, the cells are pretreated, or not, for one hour with various components. As a positive control, the NHKs are pretreated for one hour with […] (100 μM). The plates are then washed 3 times with a PBS solution before incubating the pretreated NHKs for one hour in the presence of H2O2 (100 μM) or LPS (100 ng/mL). At the end of the incubation, the cells are incubated in a solution of dihydrorhodamine (5 μM) for 30 minutes at 37° C., which allows for the labeling of ROS, particularly mitochondrial ROS. After 3 washes with a PBS solution, the mitochondrial ROS are quantified by FACS.

Sinapine was tested, and the “Mitochondrial ROS Level (%)” value (no stress treatment (—), sinapine 100 μM) was 100%, the “Mitochondrial ROS Level (%)” value (then H2O2 (100 μM) one hour, H2O2 alone = 352) was 100% and the “Mitochondrial ROS Level (%)” value (then LPS (100 ng/mL) one hour, LPS alone = 124) was 97%.
